Reference: US20060110481A1, “COMPOSITIONS CONTAINING VITEX AGNUS-CASTUS BERRY OIL FOR COSMECEUTICAL APPLICATIONS AND METHOD OF ISOLATION OF THE ACTIVE COMPONENT” (SAMI LABS LIMITED, priority 2004, published 2006)

Assays:
Assay type in all cases: cell-based
E. coli = test: Disc diffusion antimicrobial study against E. coli
Protocol: (§1) Procedure: Medium used for this study was reinforced clostridial Agar (RCA). The medium which was prepared and sterilized in 30 ml vials was poured into the plates inside the chamber and allowed to solidity. The culture was inoculated [0.3 ml/plate] into the plates and spread. After 30 minutes, antibacterial sterile discs [6 mm] were dispensed (2/plate), and 2.5, 5.0, 7.5 and 10 μl of the prepared samples and controls were dispensed onto the discs. The plates were incubated inside the anaerobic chamber at 37° C. for 48 hours duration.
(§2) Antimicrobial studies of Vitex oil against general pathogenic aerobic bacteria such as E. coli and S. aureus were also carried out. E. coli was grown in lactose broth and S. aureus in nutrient broth. The method used was the same as it was followed for P. acnes. Clindac A (Clindamycin phosphate gel 1% w/w) was used as positive control. The clearence zone formed around the discs were measured and expressed in mm.

[1] = tested on: Propionibacterium acnes ATCC 11827; test: Direct bioautography on thin layer chromatograms; conditions: TLC bioautography, P. acnes
Protocol: The antibacterial effects of aqueous, methanolic Vitex agnus castus fruit extract and various extract fractions of different polarities were evaluated by bioautography technique. […] Further fractionation of oil has been done by Silica gel chromatography. Silica gel was been loaded more than half quantity of oil and fraction was collected from mobile phase, hexane, chloroform, 50% chloroform, chloroform, 10% methanol, 50% Methanol and Methanol alone. Active fraction was identified by bioautography technique.
Direct bioautography is the technique used to localize antibacterial activity on a chromatogram. (Lund et al. 1975)
In the present study, the separated fractions of Vitex oil were subjected to Thin Layer Chromatography on silica gel. The solvent system used was hexane: chloroform in 7:3 proportion [FIG. 1]. These chromatograms were dried in the oven at 60° C. for 1 hour to eliminate the traces of solvents. This can be visualized either by spraying the thin layer chromatogram with 5% methanolic sulphuric acid followed by heat drying or under UV light. The plates were taken to the anaerobic chamber where the bioautography experiment was carried out. The medium used was reinforced clostridial agar medium. […]
After incubation, 1-1.2 ml of tetrazolium salt solution [2% concentration] was sprayed as a coloring reagent on the plates. […] The diameter of the zones were measured and expressed in mm.

S. aureus = test: Disc diffusion antimicrobial study against S. aureus
Protocol: as §1, §2

MIC (E. coli; E. coli): 1.0%
MIC (S. aureus; S. aureus): 1.0%
SMILES: COc1ccc(-c2oc3cc(OC)c(OC)c(O)c3c(=O)c2OC)cc1OC [Artemetin]
zone of inhibition at 0.5 % strength (E. coli; Escherichia coli, concentration 0.5 % w/v): 0 mm
zone of inhibition at 1 % strength (E. coli; Escherichia coli, concentration 1 % w/v): 9 mm
zone of inhibition at 5 % strength (E. coli; Escherichia coli, concentration 5 % w/v): 12 mm
Antibacterial activity by bioautography (in words) [1]: Clearance zone was exhibited
zone of inhibition at 0.5 % strength (S. aureus; Staphylococcus aureus, concentration 0.5 % w/v): 0 mm
zone of inhibition at 1 % strength (S. aureus; Staphylococcus aureus, concentration 1 % w/v): 8 mm
zone of inhibition at 5 % strength (S. aureus; Staphylococcus aureus, concentration 5 % w/v): 10 mm
